# T1: recombinant human PFK-M (Homo sapiens, UniProt P08237)
# T1 construct: made in house; host or cells: PFK-deficient Saccharomyces cerevisiae
# T1 sequence (P08237 1-780): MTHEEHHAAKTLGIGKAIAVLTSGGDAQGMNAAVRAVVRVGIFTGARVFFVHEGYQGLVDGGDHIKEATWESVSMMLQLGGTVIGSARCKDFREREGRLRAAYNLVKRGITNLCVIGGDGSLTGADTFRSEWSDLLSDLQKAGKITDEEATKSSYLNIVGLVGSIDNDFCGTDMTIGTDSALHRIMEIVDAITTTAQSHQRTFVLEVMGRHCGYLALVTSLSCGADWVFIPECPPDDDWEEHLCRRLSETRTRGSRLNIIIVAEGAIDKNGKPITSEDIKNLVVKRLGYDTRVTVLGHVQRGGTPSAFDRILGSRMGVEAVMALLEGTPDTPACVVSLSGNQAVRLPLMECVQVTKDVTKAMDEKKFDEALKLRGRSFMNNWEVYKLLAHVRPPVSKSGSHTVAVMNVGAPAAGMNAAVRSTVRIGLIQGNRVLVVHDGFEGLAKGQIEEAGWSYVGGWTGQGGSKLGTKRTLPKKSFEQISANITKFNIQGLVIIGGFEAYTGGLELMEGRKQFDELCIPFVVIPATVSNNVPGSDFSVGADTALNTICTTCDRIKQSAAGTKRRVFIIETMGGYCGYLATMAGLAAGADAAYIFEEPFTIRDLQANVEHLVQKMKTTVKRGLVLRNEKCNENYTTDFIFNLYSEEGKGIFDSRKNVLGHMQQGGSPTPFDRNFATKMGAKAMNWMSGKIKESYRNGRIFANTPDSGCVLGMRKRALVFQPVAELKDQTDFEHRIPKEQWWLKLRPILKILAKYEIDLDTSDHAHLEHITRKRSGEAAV
# T2: recombinant human PFK-P (Homo sapiens, UniProt Q01813)
# T2 construct: made in house; host or cells: PFK-deficient Saccharomyces cerevisiae
# T2 sequence (Q01813 1-784): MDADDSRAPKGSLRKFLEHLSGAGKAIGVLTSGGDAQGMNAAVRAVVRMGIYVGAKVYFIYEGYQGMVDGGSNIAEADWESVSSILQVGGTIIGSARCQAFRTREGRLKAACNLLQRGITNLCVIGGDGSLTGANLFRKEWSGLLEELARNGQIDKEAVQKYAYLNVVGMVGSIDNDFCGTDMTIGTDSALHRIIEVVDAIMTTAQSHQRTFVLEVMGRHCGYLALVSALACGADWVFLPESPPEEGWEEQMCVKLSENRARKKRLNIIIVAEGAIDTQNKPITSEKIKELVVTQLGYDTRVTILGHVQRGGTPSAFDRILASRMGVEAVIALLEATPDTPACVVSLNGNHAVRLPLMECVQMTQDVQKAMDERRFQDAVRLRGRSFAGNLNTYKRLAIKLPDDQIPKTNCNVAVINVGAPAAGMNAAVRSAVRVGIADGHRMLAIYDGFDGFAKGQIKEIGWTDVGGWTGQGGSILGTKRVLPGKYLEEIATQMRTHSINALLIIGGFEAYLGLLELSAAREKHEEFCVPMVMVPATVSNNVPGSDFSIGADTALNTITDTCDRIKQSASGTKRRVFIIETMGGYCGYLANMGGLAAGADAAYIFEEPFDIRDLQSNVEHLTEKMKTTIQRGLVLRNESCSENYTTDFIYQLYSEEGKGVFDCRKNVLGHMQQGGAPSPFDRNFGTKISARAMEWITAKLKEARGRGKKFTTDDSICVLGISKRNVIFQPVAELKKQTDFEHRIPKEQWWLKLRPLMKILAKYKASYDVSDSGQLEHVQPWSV
# T3: recombinant human PFK-L (Homo sapiens, UniProt P17858)
# T3 construct: made in house; host or cells: PFK-deficient Saccharomyces cerevisiae
# T3 sequence (P17858 1-780): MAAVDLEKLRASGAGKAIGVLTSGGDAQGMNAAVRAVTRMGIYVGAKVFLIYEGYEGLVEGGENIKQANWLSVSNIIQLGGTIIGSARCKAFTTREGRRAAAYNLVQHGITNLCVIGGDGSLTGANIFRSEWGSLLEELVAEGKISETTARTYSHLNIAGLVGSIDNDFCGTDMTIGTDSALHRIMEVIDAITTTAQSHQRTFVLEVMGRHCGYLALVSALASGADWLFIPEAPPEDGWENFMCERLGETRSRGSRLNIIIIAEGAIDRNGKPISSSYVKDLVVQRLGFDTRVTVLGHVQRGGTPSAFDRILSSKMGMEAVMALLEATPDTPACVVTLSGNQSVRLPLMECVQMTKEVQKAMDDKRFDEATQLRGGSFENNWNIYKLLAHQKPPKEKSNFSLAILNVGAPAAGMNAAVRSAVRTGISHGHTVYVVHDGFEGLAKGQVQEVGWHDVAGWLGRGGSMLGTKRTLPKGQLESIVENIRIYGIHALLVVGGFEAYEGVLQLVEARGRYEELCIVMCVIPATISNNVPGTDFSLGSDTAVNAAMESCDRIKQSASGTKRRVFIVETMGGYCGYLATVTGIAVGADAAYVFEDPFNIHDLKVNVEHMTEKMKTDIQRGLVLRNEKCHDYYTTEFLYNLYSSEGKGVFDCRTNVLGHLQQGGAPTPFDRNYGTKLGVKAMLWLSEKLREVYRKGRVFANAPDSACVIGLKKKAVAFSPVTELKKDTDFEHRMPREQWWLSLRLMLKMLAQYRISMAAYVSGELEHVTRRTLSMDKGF
# Tests used:
# PFK = test system: PFK; set-up: key to Effect (activator or inhibitor of PFK): “+” indicates activator; “-“ indicates inhibitor; conditions: cited from earlier work; for Effect (activator or inhibitor of PFK): published literature, ref selected references in Supplementary Table 1
# PFKL = conditions: ref Van Schaftingen et al 1981; cited from earlier work
# PFKM = conditions: PFKM; ref Sanchez-Martinez et al., 2000; read-out: Kact; cited from earlier work
# recombinant human PFK-M = molecular target: T1, recombinant human PFK-M; experiment: ALDO-TIM-G3PDH enzyme-linked kinetic assay, PFK-M; assay type: biochemical; conditions: modulator 1100 µM
# Method: (§1) Recombinant human PFKs were expressed in PFK-deficient Saccharomyces cerevisiae and purified using the methods described previously, adapting earlier materials and protocols. Production of PFK intended for use in ATP titration experiments used 1 mM F6P as a tetramer stabilising agent in protein purification and storage buffers. Production of PFK intended for use in F6P titration experiments used 1 mM ATP as a tetramer stabilising agent in protein purification and storage buffers. Experimental details on the purification and characterisation procedures including figures showing SDS–PAGE gels of the highly pure PFKs used in the kinetic experiments described in this work have been recently published.
# (§2) Assay buffer consisted of 50 mM TEA, 100 mM KCl, 10 mM MgCl2, 1 mM Tris(2-carboxyethyl)phosphine hydrochloride (TCEP), 10% glycerol, pH 7.4. Assay mix consisted of 5 units/ml glycerol-3-phosphate dehydrogenase (G3PDH, Sigma–Aldrich G6880), 2.5 units/ml aldolase (Sigma–Aldrich A2714), 25 units/ml triosephosphate isomerase (TIM, Sigma–Aldrich T6258), and 1.25 mM NADH. ATP and F6P were obtained from Sigma–Aldrich (A2383 and F3627, respectively). For ATP titrations, 38 µl of buffer or ligand were added to a clear non-binding 96-well plate. 40 µl of assay mix containing 10 mM F6P (final concentration 4 mM) was added and the plate was incubated at 25°C for 5 min. An amount of 2 µl of PFK isoforms were added to each well from stock concentrations of 150 µg/ml and the reaction was immediately started with 20 µl of ATP at varying concentrations. For F6P titrations, 30 µl of buffer or ligand was added to a clear non-binding 96-well plate. An amount of 40 µl of assay mix containing 1.25 mM ATP (final concentration 0.5 mM) was added and the plate was incubated at 25°C for 5 min. An amount of 5 µl of PFK isoforms were added to each well from stock concentrations of 200 µg/ml and the reaction was immediately started with 20 µl F6P at varying concentrations. All ligands and substrates (including ATP) were used at pH 7.4. All metabolites were obtained from Sigma–Aldrich unless otherwise stated. […] A SpectraMax M5 Multi-Mode Microplate Reader was used to measure A340nm at 13 s intervals for 10 min. All experiments were performed in triplicate unless otherwise stated.
# (§3) Time-dependent absorbance change was converted into rate of NADH oxidation (µM s^−1) or specific activity (µmol min^−1 mg protein^−1) using the Beer-Lambert law (molar extinction coefficient of NADH 6.22 mM^−1 cm^−1). The initial rate of reaction was used to avoid accumulation of ADP, which activates PFK, interfering with the determination of kinetic properties. Non-linear regression analysis was performed on substrate titration data using GraphPad Prism 7, with curves fitted using allosteric sigmoidal models, enabling determination of steady-state kinetic values.
# recombinant human PFK-P = molecular target: T2, recombinant human PFK-P; experiment: ALDO-TIM-G3PDH enzyme-linked kinetic assay, PFK-P; assay type: biochemical; conditions: modulator 1100 µM
# Method: as §1, §2, §3
# recombinant human PFK-L = molecular target: T3, recombinant human PFK-L; experiment: ALDO-TIM-G3PDH enzyme-linked kinetic assay, PFK-L; assay type: biochemical; conditions: PFK-L, modulator 1100 µM
# Method: as §1, §2, §3
# PFKP = conditions: ref Sanchez-Martinez et al., 2000; cited from earlier work
# [1] = test system: monocyte-derived macrophages; set-up: method as in FANTOM5 database; conditions: n = 3, ref FANTOM5 database, cited from earlier work
molecule,measurement,setting,value
O=C1O[C@H]([C@@H](O)CO)C(O)=C1O [Ascorbate],Effect (activator or inhibitor of PFK),PFK,-
"O=C(COP(=O)(O)O)[C@@H](O)[C@H](O)[C@H](O)COP(=O)(O)O [F16BP, fructose 1,6-bisphosphate]",IC50 or AC50 (activator),PFKL,40 µM
same,Effect (activator or inhibitor of PFK),PFK,+
same,EC50,PFKM,1.5 µM
O=P(O)(O)OC[C@H]1O[C@H](OP(=O)(O)O)[C@H](O)[C@@H](O)[C@@H]1O [G16BP],IC50 or AC50 (activator),PFKL,100 µM
same,Effect (activator or inhibitor of PFK),PFK,+
Nc1nc2c(ncn2[C@@H]2O[C@H](COP(=O)(O)OP(=O)(O)O)[C@@H](O)[C@H]2O)c(=O)[nH]1 [GDP],change in kcat^ATP/K0.5^ATP compared with control PFK without modulator,recombinant human PFK-M,+4.3%
same,change in kcat^ATP/K0.5^ATP compared with control PFK without modulator,recombinant human PFK-P,−0.2%
same,K0.5ATP + modulator,"recombinant human PFK-P; F6P 4mM, N=3, mean (SD)",924.6 (367.7) M
same,VmaxATP + modulator,"recombinant human PFK-P; F6P 4mM, N=3, mean (SD)",31.48 (4.42) moles/min/mg
same,change in kcat^ATP/K0.5^ATP compared with control PFK without modulator,recombinant human PFK-L,−48%
same,K0.5ATP + modulator,"recombinant human PFK-L; F6P 4mM, N=3, mean (SD)",404.4 (65.6) M
same,VmaxATP + modulator,"recombinant human PFK-L; F6P 4mM, N=3, mean (SD)",44.20 (2.84) moles/min/mg
[K+] [K+],Effect (activator or inhibitor of PFK),PFK,+
N [NH4+],Effect (activator or inhibitor of PFK),PFK,+
same,IC50 or AC50 (activator),PFKP,400 µM
O=P(O)(O)O [PO4 3-],Effect (activator or inhibitor of PFK),PFK,+
same,IC50 or AC50 (activator),PFKP,300 µM
Nc1nc2c(ncn2[C@@H]2O[C@@H]3COP(=O)(O)O[C@H]3[C@H]2O)c(=O)[nH]1 [cGMP],Effect (activator or inhibitor of PFK),PFK,-
Actin,Effect (activator or inhibitor of PFK),PFK,+
Lactate,Effect (activator or inhibitor of PFK),PFK,-
same,IC50,"PFK; value marked *, asterisk not explained, ref Costa Leite et al., 2007, read-out: IC50 or AC50 (inhibitor)",4600 µM
lipopolysaccharide [LPS],PFK-P transcript level,[1]; monocyte-derived macrophages activated by LPS,10.3 × baseline
same,PFK-L transcript level,[1]; monocyte-derived macrophages after LPS stimulation,1.9 × baseline
"Band 3: protein, PFK inhibitor in the published literature (protein, UniProt P02730 1-911, looked up) Band 3 anion transport protein: MEELQDDYEDMMEENLEQEEYEDPDIPESQMEEPAAHDTEATATDYHTTSHPGTHKVYVELQELVMDEKNQELRWMEAARWVQLEENLGENGAWGRPHLSHLTFWSLLELRRVFTKGTVLLDLQETSLAGVANQLLDRFIFEDQIRPQDREELLRALLLKHSHAGELEALGGVKPAVLTRSGDPSQPLLPQHSSLETQLFCEQGDGGTEGHSPSGILEKIPPDSEATLVLVGRADFLEQPVLGFVRLQEAAELEAVELPVPIRFLFVLLGPEAPHIDYTQLGRAAATLMSERVFRIDAYMAQSRGELLHSLEGFLDCSLVLPPTDAPSEQALLSLVPVQRELLRRRYQSSPAKPDSSFYKGLDLNGGPDDPLQQTGQLFGGLVRDIRRRYPYYLSDITDAFSPQVLAAVIFIYFAALSPAITFGGLLGEKTRNQMGVSELLISTAVQGILFALLGAQPLLVVGFSGPLLVFEEAFFSFCETNGLEYIVGRVWIGFWLILLVVLVVAFEGSFLVRFISRYTQEIFSFLISLIFIYETFSKLIKIFQDHPLQKTYNYNVLMVPKPQGPLPNTALLSLVLMAGTFFFAMMLRKFKNSSYFPGKLRRVIGDFGVPISILIMVLVDFFIQDTYTQKLSVPDGFKVSNSSARGWVIHPLGLRSEFPIWMMFASALPALLVFILIFLESQITTLIVSKPERKMVKGSGFHLDLLLVVGMGGVAALFGMPWLSATTVRSVTHANALTVMGKASTPGAAAQIQEVKEQRISGLLVAVLVGLSILMEPILSRIPLAVLFGIFLYMGVTSLSGIQLFDRILLLFKPPKYHPDVPYVKRVKTWRMHLFTGIQIICLAVLWVVKSTPASLALPFVLILTVPLRRVLLPLIFRNVELQCLDADDAKATFDEEEGRDEYDEVAMPV",Effect (activator or inhibitor of PFK),PFK,-
